In patent US20240293558A1, “KRAS INHIBITOR CONJUGATES” (Erasca, Inc., priority 2021, published 2024):
Like-named read-outs stand apart in the source and are kept apart here.

How the values were obtained:
KRAS (WT) = target: T1, KRAS (WT) (Homo sapiens, UniProt P01116); assay: In-vitro RAS-RAF binding assay (RRB), HTRF/FRET; format: biochemical; conditions: read-out: Inhibition of RAS-RAF Binding (in-vitro) KRAS (WT) IC50
T1 construct: Biotinylated KRAS protein amino acids 1-169 (produced at Erasca); made in house
Method in brief: (§1)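 Biotinylated KRAS 1-169 (streptavidin-terbium donor, 30 nM) and GST-cRAF RBD (anti-GST d2 acceptor, 30 nM) in HEPES pH 7.5, NaCl, MgCl2, DTT buffer. After compound incubation, SOS1 catalytic domain plus GTPgS drive 60 min nucleotide exchange. HTRF FRET read at equilibrium, in duplicate.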

[1] = target: T2, KRas G12D fused to HiBiT peptide (Homo sapiens, UniProt P01116, G12D); assay: ASPC-1 HiBit assay to determine G12D degradation; format: cell-based; conditions: AsPC-1 HiBiT cells, 24-hour incubation; read-out: ASPC-1 HiBit DC50 (C)
T2 construct: endogenous in cells; host or cells: AsPC-1 HiBiT knock-in single clone (Cas9 RNP + ssODN)
Procedure: Compounds presented herein induce degradation of the KRas G12D (KRasG12D) upon treatment of engineered cancer cell line.
The degradation of the KRasG12D in cellular environment was measured using engineered homozygous KRasG12D AsPC-1 cell line in which KRas G12D was fused to luminescent HiBiT peptide at the N-terminal. The small (1.3 kDa) HiBiT peptide complements with high affinity to a larger (18 kDa) subunit evolved from NanoLuc (termed LgBiT). The resulting complex (i.e., reconstituted luciferase enzyme) generates bright luminescence that translates to high sensitivity (1 amol), broad dynamic range (four orders of magnitude), and rapid kinetics for real time quantitation.
To generate HiBit KRasG12D knock-in cell line, sgRNA (SEQ. ID NO: 1) and ssODN (SEQ. ID NO: 2) were designed and synthesized at GenScript.
RNP complex was generated by mixing of 100 pmol of Cas9 protein to PCR tubes containing 300 pmol sgRNA incubating the resultant complex at room temperature for 20 min. […] ssODN was added to RNP complex slowly and RNP-ssODN complex was incubated at room temperature for 10 min. RNP-ssODN complex was mixed with […] of AsPC-1 cells (1×10^6 cells total) and electroporated using Nucleofactor (Program CM-150). Cells were then incubated at ambient temperature for 5 min and transferred to a six-well plate containing 2 ml growth medium.
To select pools with the highest luminescence signal, 10^4 cells of parental AsPC-1 and transfected pools were plated in solid white 384-well tissue culture plates. 24 hours after seeding, HiBiT was detected using the Nano-Glo HiBiT Lytic Detection System (Promega) following manufacturer's instructions. Briefly, […] of Nano-Glo HiBiT Lytic Detection Reagent was added directly to the cells and mixed by inversion before recording luminescence on an Envision (Perkin-Elmer) with 0.5 s integration time.
Single clones were isolated from stable pool by limited dilution method and presence of HiBiT knock-in was verified by TA cloning and subsequent sequencing. Additionally, western blotting analysis was conducted to confirm selection of single clones with high luminescence signal.
For DC50S measurements, AsPC-1 HiBiT single clone cells were grown in RPMI 1640 medium (Invitrogen 22400-089) supplemented with 10% fetal bovine serum. Cells were seeded in 384-well tissue culture plates at a density of 7,000 cells/well and allowed to attach for 24 hours.
Test compounds were distributed directly into assay plate with the adjustment for DMSO concentration using Tecan HP D300e. For most of the experiments, the final concentration of compounds starts from 10 μM, 3-fold dilution dose response and 10 doses. […] DMSO final concentration is 1%. Each concentration of exemplary compound was tested as singleton. The negative control wells were cells with DMSO only, and the positive control wells were cells with […] inhibitor.
Following 24-hour incubation with the compounds plate and Nano-Glo® HiBiT Lytic reagents were equilibrated to room temperature. 20 μL of HiBiT Lytic reagent were added to each well. The assay plate was incubated on digital microplate shaker (350 rpm) for 20 min followed by centrifugation at 500 g for 1 min. Luminescence was recorded using Envision (Perkin-Elmer) using aperture 384-L1 with 0.1 s integration time.
HiBiT signal are used to calculate the % degradation at given compound concentration using the following formula:
% Degradation=(1−(Sample HiBiT signal−Ave Min signal)/(Ave Max signal−Ave Min signal))*100%
For DC50 calculation, the data with the hook effect were removed first and DC50S was reported using a 4-parameter fit of dose response curve using GraphPad in those cases where maximum % degradation was >50% and Minimal % degradation was <50%. The decrease in DC50 reflects that the exemplary compound led to a higher level of degradation of KRasG12D than another exemplary compound at specific timepoint of treatment of cancer cell line. […]

KRAS G12D = KRAS G12D (Homo sapiens, UniProt P01116, G12D); assay: In-vitro RAS-RAF binding assay (RRB), HTRF/FRET; format: biochemical; design: Biotinylated KRAS protein amino acids 1-169 (produced at Erasca); made in house; conditions: read-out: Inhibition of RAS-RAF Binding (in-vitro) KRAS (G12D) IC50
Method in brief: as §1

[2] = Table 2, average of multiple runs of each compound

T2 sequence (P01116 1-188 isoform P01116-2 G12D): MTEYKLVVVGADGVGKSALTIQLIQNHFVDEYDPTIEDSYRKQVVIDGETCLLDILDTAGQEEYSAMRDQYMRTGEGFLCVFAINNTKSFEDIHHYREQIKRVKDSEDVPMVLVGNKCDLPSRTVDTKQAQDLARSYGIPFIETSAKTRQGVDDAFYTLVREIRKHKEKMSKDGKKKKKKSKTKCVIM
Sequence of KRAS G12D (P01116 1-169 isoform P01116-2 G12D): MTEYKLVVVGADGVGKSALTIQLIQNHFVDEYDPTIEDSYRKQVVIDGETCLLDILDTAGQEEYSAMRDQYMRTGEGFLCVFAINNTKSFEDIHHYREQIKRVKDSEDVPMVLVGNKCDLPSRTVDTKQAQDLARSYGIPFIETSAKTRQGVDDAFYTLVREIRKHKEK
T1 sequence (P01116 1-169 isoform P01116-2): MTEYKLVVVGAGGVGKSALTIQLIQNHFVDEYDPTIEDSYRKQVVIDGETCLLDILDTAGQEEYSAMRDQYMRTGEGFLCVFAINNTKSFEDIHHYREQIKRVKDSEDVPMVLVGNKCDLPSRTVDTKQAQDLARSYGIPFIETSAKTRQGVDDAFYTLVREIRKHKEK

IC50 (KRAS (WT); [2]) [µM]	DC50 [1] [µM]	IC50 (KRAS G12D; [2]) [µM]	IC50 (KRAS (WT); Table 1) [µM]	IC50 (KRAS G12D; Table 1) [µM]	SMILES
0.03	0.135	0.0086	–	–	C[C@H](NC(=O)[C@@H]1C[C@@H](O)CN1C(=O)[C@@H](NC(=O)CCOCCCN1CCC[C@H]1COc1nc(N2CC3CCC(C2)N3)c2cc(Cl)c(-c3ccc(F)c4sc(N)c(C#N)c34)c(F)c2n1)C(C)(C)C)c1ccc(-c2c(F)cc(F)cc2F)cc1 (single isomer, unassigned) [Example 97]
0.196	0.467	0.0121	–	–	C#Cc1c(F)ccc2cc(O)cc(-c3ncc4c(N5CC6CCC(C5)N6)nc(OCCN5CCC(COc6cc(C(C(=O)N7C[C@H](O)C[C@H]7C(=O)N[C@@H](C)c7ccc(-c8scnc8C)cc7)C(C)C)on6)CC5)nc4c3F)c12 (stereo in doubt) [Example 35, (2S,4R)-1-((2R)-2-(3-((1-(2-((4-(3,8-diazabicyclo[3.2.1]octan-3-yl)-7-(8-ethynyl-7-fluoro-3-hydroxynaphthalen-1-yl)-8-fluoropyrido[4,3-d]pyrimidin-2-yl)oxy)ethyl)piperidin-4-yl)methoxy)isoxazol-5-yl)-3-methylbutanoyl)-4-hydroxy-N—((S)-1-(4-(4-methylthiazol-5-yl)phenyl)ethyl)pyrrolidine-2-carboxamide]
0.0868	0.0775	0.0112	0.0868	0.0113	C[C@H](NC(=O)[C@@H]1C[C@@H](O)CN1C(=O)[C@@H](NC(=O)CCOCCCN1CCCC1COc1nc(N2CC3CCC(C2)N3)c2cc(Cl)c(-c3ccc(F)c4sc(N)c(C#N)c34)c(F)c2n1)C(C)(C)C)c1ccc(-c2c(F)cccc2F)cc1 (stereo partly drawn) [Example 12, (2S,4R)-1-[(2S)-2-[3-[3-[2-[[7-(2-amino-3-cyano-7-fluoro-benzothiophen-4-yl)-6-chloro-4-(3,8-diazabicyclo[3.2.1]octan-3-yl)-8-fluoro-quinazolin-2-yl]oxymethyl]pyrrolidin-1-yl]propoxy]propanoylamino]-3,3-dimethyl-butanoyl]-N-[(1S)-1-[4-(2,6-difluorophenyl)phenyl]ethyl]-4-hydroxy-pyrrolidine-2-carboxamide]
0.484	–	0.0077	–	–	C[C@H](NC(=O)[C@@H]1C[C@@H](O)CN1C(=O)[C@@H](NC(=O)CCCCN1CCC[C@H]1COc1nc(N2CC3CCC(C2)N3)c2cnc(-c3cc(O)cc4cccc(F)c34)c(F)c2n1)C(C)(C)C)c1ccc(-c2ccccc2)cc1 [Example 83, (2S,4R)-1-((2S)-2-(5-((2S)-2-(((4-(3,8-diazabicyclo[3.2.1]octan-3-yl)-8-fluoro-7-(8-fluoro-3-hydroxynaphthalen-1-yl)pyrido[4,3-d]pyrimidin-2-yl)oxy)methyl)pyrrolidin-1-yl)pentanamido)-3,3-dimethylbutanoyl)-N-((S)-1-([1,1′-biphenyl]-4-yl)ethyl)-4-hydroxypyrrolidine-2-carboxamide]
0.069	–	0.0128	–	–	Cc1ncsc1-c1ccc([C@H](C)NC(=O)[C@@H]2C[C@@H](O)CN2C(=O)[C@@H](NC(=O)CCCCN2CCC[C@H]2COc2nc(N3CC4CCC(C3)N4)c3cc(Cl)c(-c4ccc(F)c5sc(N)c(C#N)c45)c(F)c3n2)C(C)(C)C)cc1 [Example 84, (2S,4R)-1-((2S)-2-(5-((2S)-2-(((7-(2-amino-3-cyano-7-fluorobenzo[b]thiophen-4-yl)-4-(3,8-diazabicyclo[3.2.1]octan-3-yl)-6-chloro-8-fluoroquinazolin-2-yl)oxy)methyl)pyrrolidin-1-yl)pentanamido)-3,3-dimethylbutanoyl)-4-hydroxy-N-((S)-1-(4-(4-methylthiazol-5-yl)phenyl)ethyl)pyrrolidine-2-carboxamide]
0.568	–	0.00905	–	–	C[C@H](NC(=O)[C@@H]1C[C@@H](O)CN1C(=O)[C@@H](NC(=O)CCCCN1CCC[C@H]1COc1nc(N2CC3CCC(C2)N3)c2cnc(-c3cc(O)cc4cccc(F)c34)c(F)c2n1)C(C)(C)C)c1ccc(-c2cccc(F)c2)cc1 [Example 86, (2S,4R)-1-((2S)-2-(5-((2S)-2-(((4-(3,8-diazabicyclo[3.2.1]octan-3-yl)-8-fluoro-7-(8-fluoro-3-hydroxynaphthalen-1-yl)pyrido[4,3-d]pyrimidin-2-yl)oxy)methyl)pyrrolidin-1-yl)pentanamido)-3,3-dimethylbutanoyl)-N-((S)-1-(3′-fluoro-[1,1′-biphenyl]-4-yl)ethyl)-4-hydroxypyrrolidine-2-carboxamide]
0.0633	–	0.0163	–	–	Cc1ncsc1-c1ccc([C@H](CO)NC(=O)[C@@H]2C[C@@H](O)CN2C(=O)[C@@H](NC(=O)CCCCN2CCC[C@H]2COc2nc(N3CC4CCC(C3)N4)c3cc(Cl)c(-c4ccc(F)c5sc(N)c(C#N)c45)c(F)c3n2)C(C)(C)C)cc1 [Example 88, (2S,4R)-1-((2S)-2-(5-((2S)-2-(((7-(2-amino-3-cyano-7-fluorobenzo[b]thiophen-4-yl)-4-(3,8-diazabicyclo[3.2.1]octan-3-yl)-6-chloro-8-fluoroquinazolin-2-yl)oxy)methyl)pyrrolidin-1-yl)pentanamido)-3,3-dimethylbutanoyl)-4-hydroxy-N-((R)-2-hydroxy-1-(4-(4-methylthiazol-5-yl)phenyl)ethyl)pyrrolidine-2-carboxamide]
0.0658	–	0.0152	–	–	Cc1ncsc1-c1ccc([C@H](C)NC(=O)[C@@H]2C[C@@H](O)CN2C(=O)[C@@H](NC(=O)CCCCN2CCC[C@H]2COc2nc(N3CC4CCC(C3)N4)c3cc(Cl)c(-c4ccc(F)c5sc(N)c(C#N)c45)c(F)c3n2)C(C)(C)C)cc1 [Example 89, (2S,4R)-1-((2S)-2-(5-((2S)-2-(((7-(2-amino-3-cyano-7-fluorobenzo[b]thiophen-4-yl)-4-(3,8-diazabicyclo[3.2.1]octan-3-yl)-6-chloro-8-fluoroquinazolin-2-yl)oxy)methyl)pyrrolidin-1-yl)pentanamido)-3,3-dimethylbutanoyl)-4-hydroxy-N-((S)-1-(4-(4-methylthiazol-5-yl)phenyl)ethyl)pyrrolidine-2-carboxamide]
0.043	–	0.013	–	–	Cc1ncsc1-c1ccc([C@H](C)NC(=O)[C@@H]2C[C@@H](O)CN2C(=O)[C@@H](NC(=O)CCCCN2CCC[C@H]2COc2nc(N3CC4CCC(C3)N4)c3cc(C(F)(F)F)c(-c4ccc(F)c5sc(N)c(C#N)c45)c(F)c3n2)C(C)(C)C)cc1 [Example 90, (2S,4R)-1-((2S)-2-(5-((2S)-2-(((7-(2-amino-3-cyano-7-fluorobenzo[b]thiophen-4-yl)-4-(3,8-diazabicyclo[3.2.1]octan-3-yl)-8-fluoro-6-(trifluoromethyl)quinazolin-2-yl)oxy)methyl)pyrrolidin-1-yl)pentanamido)-3,3-dimethylbutanoyl)-4-hydroxy-N-((S)-1-(4-(4-methylthiazol-5-yl)phenyl)ethyl)pyrrolidine-2-carboxamide]
